This passage reports IC50 results from BindingDB's records for doi:10.1021/jm00072a019 (J. Uriach & Cía., 1993).

Test [1] is described as follows: In vitro inhibition of PAF-induced platelet aggregation in male rabbits.
The nature of test [2]: Inhibition of PAF-induced platelet aggregation.

For the molecule `Cc1ncccc1C(CO)N1CCN(C(=O)CC(c2ccccc2)c2ccccc2)CC1` (stereo not drawn) [1-{4-[2-Hydroxy-1-(2-methyl-pyridin-3-yl)-ethyl]-piperazin-1-yl}-3,3-diphenyl-propan-1-one], in test [1], the IC50 is 4 µM.
On to `CO/N=C(/C)C(c1cccnc1C)N1CCN(C(=O)CC(c2ccccc2)c2ccccc2)CC1` (stereo not drawn) [1-{4-[2-Methoxyimino-1-(2-methyl-pyridin-3-yl)-propyl]-piperazin-1-yl}-3,3-diphenyl-propan-1-one], for which 7.8 µM corresponded to half-maximal inhibition in test [1] (IC50).
The same measure, in the same setting: with `Cc1ncccc1C(C#N)N1CCN(C(=O)CC(NC(=O)c2ncccc2O)c2ccccc2)CC1` (stereo not drawn) [3-Hydroxy-pyridine-2-carboxylic acid (3-{4-[cyano-(2-methyl-pyridin-3-yl)-methyl]-piperazin-1-yl}-3-oxo-1-phenyl-propyl)-amide] the figure was 0.13 µM; with `CCOC(=O)C(CC(=O)N1CCN(C(C#N)c2cccnc2C)CC1)(c1ccccc1)c1ccccc1` (stereo not drawn) [4-{4-[Cyano-(2-methyl-pyridin-3-yl)-methyl]-piperazin-1-yl}-4-oxo-2,2-diphenyl-butyric acid ethyl ester], 0.046 µM.
The molecule `Cc1ncccc1C(C#N)N1CCN(C(=O)CC(c2ccccc2)n2cccc2)CC1` (stereo not drawn) [(2-Methyl-pyridin-3-yl)-[4-(3-phenyl-3-pyrrol-1-yl-propionyl)-piperazin-1-yl]-acetonitrile] returned an IC50 in test [1] of 0.35 µM.
Still for that read-out and setting: under `Cc1ncccc1C(C#N)N1CCN(C(=O)CC(c2ccccc2)N2CCCC2)CC1` (stereo not drawn) [(2-Methyl-pyridin-3-yl)-[4-(3-phenyl-3-pyrrolidin-1-yl-propionyl)-piperazin-1-yl]-acetonitrile] stands 0.018 µM; under `Cc1ncccc1C(C#N)N1CCN(C(=O)CC(C)c2ccccc2)CC1` (stereo not drawn) [(2-Methyl-pyridin-3-yl)-[4-(3-phenyl-butyryl)-piperazin-1-yl]-acetonitrile], 0.032 µM; under `Cc1ncccc1C(C#N)N1CCN(C(=O)CC(O)(c2ccccc2)C(F)(F)F)CC1` (stereo not drawn) [(2-Methyl-pyridin-3-yl)-[4-(4,4,4-trifluoro-3-hydroxy-3-phenyl-butyryl)-piperazin-1-yl]-acetonitrile], 0.014 µM.
Same read-out and setting: with `Cc1ncccc1C(C#N)N1CCN(C(=O)/C=C(/c2ccccc2)C(F)(F)F)CC1` (stereo not drawn) [(2-Methyl-pyridin-3-yl)-[4-(4,4,4-trifluoro-3-phenyl-but-2-enoyl)-piperazin-1-yl]-acetonitrile] the figure was 0.12 µM; with `Cc1ncccc1C(C#N)N1CCN(C(=O)/C=C(\c2ccccc2)C(F)(F)F)CC1` (stereo not drawn) [(2-Methyl-pyridin-3-yl)-[4-(4,4,4-trifluoro-3-phenyl-but-2-enoyl)-piperazin-1-yl]-acetonitrile], 0.055 µM.
Still for that read-out and setting: under `Cc1ncccc1C(C#N)N1CCN(C(=O)CC(c2ccccc2)C(F)(F)F)CC1` (stereo not drawn) [(2-Methyl-pyridin-3-yl)-[4-(4,4,4-trifluoro-3-phenyl-butyryl)-piperazin-1-yl]-acetonitrile] stands 0.012 µM; under `Cc1ncccc1C(C#N)N1CCN(C(=O)CC(NC(=O)c2ccoc2)c2ccccc2)CC1` (stereo not drawn) [Furan-3-carboxylic acid (3-{4-[cyano-(2-methyl-pyridin-3-yl)-methyl]-piperazin-1-yl}-3-oxo-1-phenyl-propyl)-amide], 2.6 µM.
For the molecule `Cc1ncccc1C(C#N)N1CCN(C(=O)CC(NC(=O)c2ccc[nH]c2=O)c2ccccc2)CC1` (stereo not drawn) [N-(3-{4-[Cyano-(2-methyl-pyridin-3-yl)-methyl]-piperazin-1-yl}-3-oxo-1-phenyl-propyl)-2-hydroxy-nicotinamide], the IC50 in test [1] turned out to be 0.029 µM.
On the same count and under the same terms, under `Cc1ncccc1C(C#N)N1CCN(C(=O)CC(NS(=O)(=O)c2ccccc2)c2ccccc2)CC1` (stereo not drawn) [N-(3-{4-[Cyano-(2-methyl-pyridin-3-yl)-methyl]-piperazin-1-yl}-3-oxo-1-phenyl-propyl)-benzenesulfonamide] stands 0.018 µM; under `Cc1ncccc1C(C#N)N1CCN(C(=O)CC(NS(C)(=O)=O)c2ccccc2)CC1` (stereo not drawn) [N-(3-{4-[Cyano-(2-methyl-pyridin-3-yl)-methyl]-piperazin-1-yl}-3-oxo-1-phenyl-propyl)-methanesulfonamide], 0.021 µM.
The same measure, in the same setting: under `Cc1ncccc1C(C#N)N1CCN(C(=O)CN(C(c2ccccc2)c2ccccc2)S(C)(=O)=O)CC1` (stereo not drawn) [N-Benzhydryl-N-(2-{4-[cyano-(2-methyl-pyridin-3-yl)-methyl]-piperazin-1-yl}-2-oxo-ethyl)-methanesulfonamide] stands 0.082 µM; under `Cc1ncccc1C(C#N)N1CCN(C(=O)CC(NC(=O)c2cnccn2)c2ccccc2)CC1` (stereo not drawn) [Pyrazine-2-carboxylic acid (3-{4-[cyano-(2-methyl-pyridin-3-yl)-methyl]-piperazin-1-yl}-3-oxo-1-phenyl-propyl)-amide], 0.82 µM; under `Cc1ncccc1C(C#N)N1CCN(C(=O)CON=C(c2ccccc2)c2ccccc2)CC1` (stereo not drawn) [[4-(2-Benzhydrylideneaminooxy-acetyl)-piperazin-1-yl]-(2-methyl-pyridin-3-yl)-acetonitrile], 0.087 µM.
Take `Cc1ncccc1C(C#N)N1CCN(C(=O)C=C(c2ccccc2)c2ccccc2)CC1` (stereo not drawn) [[4-(3,3-Diphenyl-acryloyl)-piperazin-1-yl]-(2-methyl-pyridin-3-yl)-acetonitrile]: in test [2], the IC50 was 0.026 µM.
On to `CCOC(=O)C(c1cccnc1C)N1CCN(C(=O)CC(c2ccccc2)c2ccccc2)CC1` (stereo not drawn) [[4-(3,3-Diphenyl-propionyl)-piperazin-1-yl]-(2-methyl-pyridin-3-yl)-acetic acid ethyl ester], for which the IC50 in test [1] came out at 15.5 µM.
The molecule `Cc1ncccc1C(C#N)N1CCN(C(=O)CC(c2ccccc2)c2ccccc2)CC1` (stereo not drawn) [[4-(3,3-Diphenyl-propionyl)-piperazin-1-yl]-(2-methyl-pyridin-3-yl)-acetonitrile] came in with an IC50 in test [2] of 0.018 µM.
Still for that read-out and setting: with `C=CCNC(CC(=O)N1CCN(C(C#N)c2cccnc2C)CC1)c1ccccc1` (stereo not drawn) [[4-(3-Allylamino-3-phenyl-propionyl)-piperazin-1-yl]-(2-methyl-pyridin-3-yl)-acetonitrile] the figure was 0.018 µM; with `Cc1ncccc1C(C#N)N1CCN(C(=O)CC(N)c2ccccc2)CC1` (stereo not drawn) [[4-(3-Amino-3-phenyl-propionyl)-piperazin-1-yl]-(2-methyl-pyridin-3-yl)-acetonitrile], 0.74 µM.
Same read-out and setting: under `Cc1ncccc1C(C#N)N1CCN(C(=O)CC(NCc2ccccc2)c2ccccc2)CC1` (stereo not drawn) [[4-(3-Benzylamino-3-phenyl-propionyl)-piperazin-1-yl]-(2-methyl-pyridin-3-yl)-acetonitrile] stands 0.0091 µM; under `Cc1ncccc1C(C#N)N1CCN(C(=O)CC(c2ccccc2)N(Cc2ccccc2)Cc2ccccc2)CC1` (stereo not drawn) [[4-(3-Dibenzylamino-3-phenyl-propionyl)-piperazin-1-yl]-(2-methyl-pyridin-3-yl)-acetonitrile], 0.041 µM.
In turn, `Cc1ncccc1C(C#N)N1CCN(C(=O)C(C)(C)C(F)(c2ccccc2)c2ccccc2)CC1` (stereo not drawn) [[4-(3-Fluoro-2,2-dimethyl-3,3-diphenyl-propionyl)-piperazin-1-yl]-(2-methyl-pyridin-3-yl)-acetonitrile] showed an IC50 in test [2] of 0.026 µM.
Same read-out and setting: with `Cc1ncccc1C(C#N)N1CCN(C(=O)CC(O)(c2ccccc2)c2ccccc2)CC1` (stereo not drawn) [[4-(3-Hydroxy-3,3-diphenyl-propionyl)-piperazin-1-yl]-(2-methyl-pyridin-3-yl)-acetonitrile] the figure was 0.017 µM.
On the same count and under the same terms, with `CNC(CC(=O)N1CCN(C(C#N)c2cccnc2C)CC1)c1ccccc1` (stereo not drawn) [[4-(3-Methylamino-3-phenyl-propionyl)-piperazin-1-yl]-(2-methyl-pyridin-3-yl)-acetonitrile] the figure was 0.011 µM; with `Cc1ncccc1C(C#N)N1CCN(C(=O)CCC(c2ccccc2)c2ccccc2)CC1` (stereo not drawn) [[4-(4,4-Diphenyl-butyryl)-piperazin-1-yl]-(2-methyl-pyridin-3-yl)-acetonitrile], 0.08 µM.
Still for that read-out and setting: with `Cc1ncccc1C(C#N)N1CCN(C(=O)CNC(C)(c2ccccc2)c2ccccc2)CC1` (stereo not drawn) [{4-[2-(1,1-Diphenyl-ethylamino)-acetyl]-piperazin-1-yl}-(2-methyl-pyridin-3-yl)-acetonitrile] the figure was 0.086 µM; with `Cc1ncccc1C(C#N)N1CCN(C(=O)CNC2c3ccccc3-c3ccccc32)CC1` (stereo not drawn) [{4-[2-(9H-Fluoren-9-ylamino)-acetyl]-piperazin-1-yl}-(2-methyl-pyridin-3-yl)-acetonitrile], 0.05 µM; with `Cc1ncccc1C(C#N)N1CCN(C(=O)[C@H](CO)NC(c2ccccc2)c2ccccc2)CC1` (stereo partly drawn) [{4-[2-(Benzhydryl-amino)-3-hydroxy-propionyl]-piperazin-1-yl}-(2-methyl-pyridin-3-yl)-acetonitrile], 0.034 µM.
As for `CCc1ncccc1C(C#N)N1CCN(C(=O)CNC(c2ccccc2)c2ccccc2)CC1` (stereo not drawn) [{4-[2-(Benzhydryl-amino)-acetyl]-piperazin-1-yl}-(2-ethyl-pyridin-3-yl)-acetonitrile], the IC50 in test [2] turned out to be 0.038 µM.
Same read-out and setting: with `Cc1ncccc1C(C#N)N1CCN(C(=O)CNC(c2ccccc2)c2ccccc2)CC1` (stereo not drawn) [{4-[2-(Benzhydryl-amino)-acetyl]-piperazin-1-yl}-(2-methyl-pyridin-3-yl)-acetonitrile] the figure was 0.04 µM.
Still for that read-out and setting: under `Cc1ncccc1C(C#N)N1CCN(C(=O)[C@@H](C)NC(c2ccccc2)c2ccccc2)CC1` (stereo partly drawn) [{4-[2-(Benzhydryl-amino)-propionyl]-piperazin-1-yl}-(2-methyl-pyridin-3-yl)-acetonitrile] stands 0.03 µM; under `Cc1ncccc1C(C#N)N1CCN(C(=O)[C@H](C)NC(c2ccccc2)c2ccccc2)CC1` (stereo partly drawn) [{4-[2-(Benzhydryl-amino)-propionyl]-piperazin-1-yl}-(2-methyl-pyridin-3-yl)-acetonitrile], 0.013 µM.
On the same count and under the same terms, with `Cc1ncccc1C(C#N)N1CCN(C(=O)CCNC(c2ccccc2)c2ccccc2)CC1` (stereo not drawn) [{4-[3-(Benzhydryl-amino)-propionyl]-piperazin-1-yl}-(2-methyl-pyridin-3-yl)-acetonitrile] the figure was 0.12 µM; with `Cc1ncccc1C(C#N)N1CCN(C(=O)CC(c2ccccc2)N(C)Cc2ccccc2)CC1` (stereo not drawn) [{4-[3-(Benzyl-methyl-amino)-3-phenyl-propionyl]-piperazin-1-yl}-(2-methyl-pyridin-3-yl)-acetonitrile], 0.02 µM.

The IC50 is the point on the concentration scale where inhibition reaches its midpoint.
